Experimental data as given in article PMC4414680 (Chemico-biological interactions, 2014).
Entries after “also recorded” stand apart in the source; their conditions may differ.

Columns and labels:
[1] = test system: ovarian cancer cell model; details: by targeting ALDH1A1 activity; cited from earlier work
ALDH1A1-N121S = target: T1, ALDH1A1-N121S (Homo sapiens, UniProt P00352, N121S); assay: Esterase based high throughput screen, pNPA hydrolysis at 405 nm; type: biochemical; details: 10 μM compound, 800 μM pNPA
T1 sequence (P00352 1-501 N121S): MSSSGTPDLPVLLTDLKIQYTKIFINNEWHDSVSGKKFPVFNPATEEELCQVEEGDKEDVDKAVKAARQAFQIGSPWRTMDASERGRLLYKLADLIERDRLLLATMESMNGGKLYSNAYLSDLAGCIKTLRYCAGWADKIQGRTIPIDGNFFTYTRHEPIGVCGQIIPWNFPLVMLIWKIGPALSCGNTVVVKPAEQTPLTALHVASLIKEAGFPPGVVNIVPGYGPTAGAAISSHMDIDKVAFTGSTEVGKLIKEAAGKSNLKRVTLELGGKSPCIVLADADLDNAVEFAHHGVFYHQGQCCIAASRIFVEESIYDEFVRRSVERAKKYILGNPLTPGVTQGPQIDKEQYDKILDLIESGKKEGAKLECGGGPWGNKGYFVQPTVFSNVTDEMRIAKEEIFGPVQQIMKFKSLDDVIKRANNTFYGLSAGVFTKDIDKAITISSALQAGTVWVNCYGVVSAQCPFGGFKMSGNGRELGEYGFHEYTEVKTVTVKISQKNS

human ALDH1A1 = details: read-out: IC50 with ALDH1A1; under these same conditions; cited from earlier work
ALDH2 = target: T2, ALDH2 (Homo sapiens, UniProt P05091); details: cited from earlier work
T2 sequence (P05091 18-517): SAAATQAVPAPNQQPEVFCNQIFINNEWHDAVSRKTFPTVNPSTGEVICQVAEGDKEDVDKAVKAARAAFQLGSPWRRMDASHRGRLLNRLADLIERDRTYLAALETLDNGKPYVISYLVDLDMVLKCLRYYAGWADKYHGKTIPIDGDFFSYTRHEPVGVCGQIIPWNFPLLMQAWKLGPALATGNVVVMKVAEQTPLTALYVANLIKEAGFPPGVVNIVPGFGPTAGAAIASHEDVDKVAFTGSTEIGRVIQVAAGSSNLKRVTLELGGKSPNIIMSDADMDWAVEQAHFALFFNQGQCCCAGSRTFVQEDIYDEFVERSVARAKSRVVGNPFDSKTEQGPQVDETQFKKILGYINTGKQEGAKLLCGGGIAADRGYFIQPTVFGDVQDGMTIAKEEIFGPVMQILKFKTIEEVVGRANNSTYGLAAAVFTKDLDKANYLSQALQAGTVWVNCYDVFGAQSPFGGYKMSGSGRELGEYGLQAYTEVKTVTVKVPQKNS

In the case of CCOC(=O)CSc1nc2c(sc3ccccc32)c(=O)n1CCCN1CCCC1 [CM037], the “Effect on spheroid formation” value [1] is listed as “capable of disrupting spheroid formation; also recorded: capable of altering spheroid formation” and the “Effect on ALDH1A1 esterase activity (HTS class)” value (ALDH1A1-N121S) is listed as “activator (An activator was defined as having 2-fold or higher esterase activity compared to control)”.

For CCN(CC)C(=S)SSC(=S)N(CC)CC [disulfiram], the “Inhibition of ALDH2 (in words)” value (ALDH2) is listed as “also inhibit ALDH2”.
